Measurements from paper PMC3523097 (Journal of medicinal chemistry, 2012).
“And” between values parts separate entries of the source, which are not always exact repeats. Equal entries are not always repeated. “Also recorded” adds a separate entry of the source. Where two headings read alike, the source gives them in different places. Non-standard residues stand in square brackets, D forms with d. Residues, ends and D or L forms follow the SMILES beside them. Dmt = Cc1cc(O)cc(C)c1C[C@H](N)C(=O)O; dCit = NC(=O)NCCC[C@@H](N)C(=O)O; Nle = CCCC[C@H](N)C(=O)O

How the values were obtained:
[1] = cited from earlier work
[2] = test system: mouse brain (blood-brain barrier); test: Blood-to-brain influx, multiple time regression of [125I]-peptides; settings: for Vbr (brain distribution volume): [125I]-labelled, CD-1 mice, mean ± SEM
[3] = test system: mouse tissues (spleen, liver, lungs, heart, kidneys, serum); test: In vivo tissue biodistribution of [125I]-peptides; settings: for Serum levels: 15 min after administration, rank in words
MOR [4] = target: T1, MOR (Rattus norvegicus, UniProt P33535); test: MOR receptor binding, displacement of [3H]DAMGO from rat brain membranes; settings: ratio of MOR/DOR/KOR Ki
CD-1 mice [5] = test: Antinociception after i.p. administration, 55 °C tail withdrawal; format: in vivo, mouse; settings: for Antinociceptive activity, times higher than the antinociception of morphine: at the plateau decline phase; for Time of maximum antinociceptive activity post i.p. injection: mice; for Antinociceptive effect after i.p. injection, in words: Figure 3
CD-1 mice [6] = test: Antinociception after s.c. administration, radiant heat tail-flick test; format: in vivo; settings: mouse tail-flick test; for ED50 (95% confidence limits): at the time of peak effect
[7] = test system: DOR (mouse vas deferens, MVD); test: Mouse vas deferens; format: biochemical
[8] = incubated in sheep blood; cited from earlier work
MOR [9] = target: T1, MOR; settings: ratio of MOR/DOR/KOR Ki; cited from earlier work
[10] = test system: MOR (guinea pig ileum, GPI); settings: read-out: GPI (μ) IC50; cited from earlier work
[11] = test system: DOR (mouse vas deferens, MVD); settings: read-out: MVD (δ) IC50; cited from earlier work
[12] = test system: MOR (guinea pig ileum, GPI); test: Guinea pig ileum; format: biochemical

T1 sequence (P33535 whole entry): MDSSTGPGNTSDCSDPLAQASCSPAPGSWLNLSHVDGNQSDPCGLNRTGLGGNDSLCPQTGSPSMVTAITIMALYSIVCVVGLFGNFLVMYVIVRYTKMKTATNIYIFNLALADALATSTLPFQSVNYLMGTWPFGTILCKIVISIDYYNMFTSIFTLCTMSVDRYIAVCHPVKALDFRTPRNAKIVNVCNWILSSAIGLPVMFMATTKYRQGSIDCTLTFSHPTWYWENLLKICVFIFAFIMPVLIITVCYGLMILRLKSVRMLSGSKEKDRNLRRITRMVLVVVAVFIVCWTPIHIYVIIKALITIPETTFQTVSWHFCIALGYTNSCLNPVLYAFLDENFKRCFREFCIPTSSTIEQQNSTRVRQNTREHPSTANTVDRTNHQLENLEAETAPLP

| Molecule | Vbr (brain distribution volume) [2] [µL/g] | Serum levels [3] | Ki ratio μ/δ/κ (MOR [4]) | Duration of antinociceptive action (CD-1 mice [6]) [h] | Time of peak effect (CD-1 mice [6]) | ED50 (95% confidence limits) (CD-1 mice [6]) | further results |
| --- | --- | --- | --- | --- | --- | --- | --- |
| endomorphin-2 |  |  |  |  |  |  | t1/2 in mouse plasma [1]: 4 to 7 min |
| CCCC[C@H](NC(=O)[C@H](Cc1ccccc1)NC(=O)[C@@H](CCCN=C(N)N)NC(=O)[C@@H](N)Cc1c(C)cc(O)cc1C)C(N)=O [Peptide 9, H-Dmt-D-Arg-Phe-Nle-NH2] (H-[Dmt][dR]F[Nle]-NH2) | 27.43 ± 4.80 | lowest |  |  |  |  |  |
| Cc1cc(O)cc(C)c1C[C@H](N)C(=O)N[C@H](CCCNC(N)=O)C(=O)N[C@@H](Cc1ccccc1)C(=O)N(C)[C@@H](CCCCN)C(N)=O [Peptide 14, H-Dmt-D-Cit-Phe-NMeLys-NH2] | 17.13 ± 2.36 | intermediate | 1/42/12 | 2 to 3 | 1 h | 0.16 (0.07-0.36) μmol/kg | Antinociceptive activity, times higher than the antinociception of morphine (CD-1 mice [5]): 13 - 15; Time of maximum antinociceptive activity post i.p. injection (CD-1 mice [5]): 60 to 90 min |
| CCCC[C@H](NC(=O)[C@H](Cc1ccccc1)NC(=O)[C@@H](CCCNC(N)=O)NC(=O)[C@@H](N)Cc1c(C)cc(O)cc1C)C(N)=O [Peptide 11, H-Dmt-D-Cit-Phe-Nle-NH2] (H-[Dmt][dCit]F[Nle]-NH2) |  |  | 1/5/125 |  |  |  |  |
| Cc1cc(O)cc(C)c1C[C@H](N)C(=O)N[C@H](CCCNC(N)=O)C(=O)N[C@@H](Cc1ccccc1)C(=O)N[C@@H](CCCCN)C(N)=O [Peptide 10, H-Dmt-D-Cit-Phe-Lys-NH2] | 27.12 ± 3.76 | intermediate | 1/88/37 | 2 to 3 | 1 h | 0.23 (0.10-0.55) μmol/kg | Time of maximum antinociceptive activity post i.p. injection (CD-1 mice [5]): 45 min |
| Cc1cc(O)cc(C)c1C[C@H](N)C(=O)N[C@H](CCCNC(=N)N)C(=O)N[C@@H](Cc1ccccc1)C(=O)N(C)[C@@H](CCCCN)C(N)=O [Peptide 12, H-Dmt-D-Arg-Phe-NMeLys-NH2] | 21.99 ± 2.81 | intermediate | 1/1190/216 | > 7 | 1 to 4 h and 2 h | 0.13 (0.06-0.30) μmol/kg | Antinociceptive activity, times higher than the antinociception of morphine (CD-1 mice [5]): 13 - 15; Time of maximum antinociceptive activity post i.p. injection (CD-1 mice [5]): 60 to 90 min |
| endomorphin-1 |  |  |  |  |  |  | t1/2 in mouse plasma [1]: 4 to 7 min |
| Cc1cc(O)cc(C)c1C[C@H](N)C(=O)N[C@H](CCCNC(=N)N)C(=O)N[C@H]1Cc2ccccc2CN([C@@H](CCCCN)C(N)=O)C1=O [Peptide 16, H-Dmt-D-Arg-Aba-Lys-NH2] |  |  |  |  |  |  | MVD (δ) IC25 ([7]; IC25 given instead of IC50): 64 (IC25) nM |
| Cc1cc(O)cc(C)c1C[C@H](N)C(=O)N[C@H](CCCNC(=N)N)C(=O)N[C@@H](Cc1ccccc1)C(=O)N[C@@H](CCCCN)C(N)=O [Peptide 1, H-Dmt-D-Arg-Phe-Lys-NH2, reference compound] | 19.25 ± 1.02 | highest |  | 6 to 7 | 2 h | 0.15 (0.07-0.32) μmol/kg | t1/2 in sheep blood [8]: 108 min; Time of maximum antinociceptive activity post i.p. injection (CD-1 mice [5]): 60 min; Duration of antinociceptive action (CD-1 mice [6]; listed as [Dmt^1]-DALDA): > 7 h |
| Cc1cc(O)cc(C)c1C[C@H](N)C(=O)N[C@H](CCCNC(=N)N)C(=O)N[C@H]1Cc2ccccc2CN(CC(N)=O)C1=O [Peptide 20, H-Dmt-D-Arg-Aba-Gly-NH2, reference compound] | 24.01 ± 3.41 | intermediate |  | 6 to 7 | 1 h | 0.47 (0.18-1.2) μmol/kg | Ki ratio μ/δ/κ (MOR [9]): 1/4/787; Tissue distribution (percentage of mass-corrected injected dose), in words ([3]; [125I]-peptide, mice, Figure 2): higher kidney uptake; IC50 [10]: 320 pM; IC50 [11]: 420 pM; Antinociceptive effect after i.p. injection, in words (CD-1 mice [5]): slow and shallow antinociceptive response |
| CCCC[C@@H](C(N)=O)N1Cc2ccccc2C[C@H](NC(=O)[C@@H](CCCNC(N)=O)NC(=O)[C@@H](N)Cc2c(C)cc(O)cc2C)C1=O [Peptide 19, H-Dmt-D-Cit-Aba-Nle-NH2] |  |  | 1/3/12 |  |  |  | GPI (μ) IC35 ([12]; IC35 given instead of IC50): 0.78 (IC35) nM; MOR functional profile ([12]; in words): MOR partial agonist; DOR functional profile ([7]; in words): DOR full agonist |
| CCCC[C@@H](C(N)=O)N1Cc2ccccc2C[C@H](NC(=O)[C@@H](CCCNC(=N)N)NC(=O)[C@@H](N)Cc2c(C)cc(O)cc2C)C1=O [Peptide 17, H-Dmt-D-Arg-Aba-Nle-NH2] |  |  | 1/17/3 |  |  |  |  |
| CCCC[C@@H](C(N)=O)N(C)C(=O)[C@H](Cc1ccccc1)NC(=O)[C@@H](CCCNC(=N)N)NC(=O)[C@@H](N)Cc1c(C)cc(O)cc1C [Peptide 13, H-Dmt-D-Arg-Phe-NMeNle-NH2] |  |  | 1/62/55 |  |  |  |  |
| CCCC[C@H](NC(=O)[C@H](Cc1ccccc1)NC(=O)[C@@H](CCCNC(=N)N)NC(=O)[C@@H](N)Cc1c(C)cc(O)cc1C)C(N)=O [Peptide 9, H-Dmt-D-Arg-Phe-Nle-NH2] (H-[Dmt][dR]F[Nle]-NH2) |  |  | 1/66/70 |  |  | >6 µmol/kg | Antinociceptive effect after i.p. injection, in words (CD-1 mice [5]): relatively low antinociceptive activity; Antinociceptive effect after s.c. administration, in words (CD-1 mice [6]): no dose-related antinociception; also recorded: failed to reach a 50% effect after s.c. administration of 6 μmol/kg |
| CN1CC[C@]23c4c5ccc(O)c4O[C@H]2[C@@H](O)C=C[C@H]3[C@H]1C5 [Morphine, reference compound] |  |  |  |  |  |  | Relative potency to Morphine (CD-1 mice [6]; from ED50): 1 |
| C[C@@H](NC(=O)[C@@H](N)Cc1ccc(O)cc1)C(=O)N[C@@H](Cc1ccccc1)C(=O)NCC(=O)N[C@@H](Cc1ccc(O)cc1)C(=O)N1CCC[C@H]1C(=O)N[C@@H](CO)C(N)=O [dermorphin, Tyr-D-Ala-Phe-Gly-Tyr-Pro-Ser-NH2, reference compound] |  |  |  |  |  |  | mean influx transfer constant (mean Kin) ([2]; I-125 labelled control, over 15 minutes for dermorphin): 0.173 ± 0.137 µL/g/min; Antinociceptive effect after i.p. injection, in words (CD-1 mice [5]): inability of dermorphin to induce a significant antinociceptive effect |
